Experimental data as given in patent US20100069493A1, “AQUEOUS PHARMACEUTICAL FORMULATION OF 4-[((4-CARBOXYBUTYL)-AMINO)METHYL]BENZOIC ACID” (BAYER HEALTHCARE AG, priority 2006, published 2010).
≈ marks a conversion by molar mass, not a printed value.

How the values were obtained:
Format in all cases: physicochemical
[1] = Dilution experiments on 0.05 mg/ml solutions with and without trometamol (Table 2); conditions: for Appearance of the solution: 0.05 mg/ml solution with trometamol 0.01 molar, pH before dilution 8.74
Experimental: Dilution experiments on solutions with an active ingredient content of 0.05 mg/ml have shown that these can be diluted in a pH-stable and thus problem-free manner over a wide range only if they are buffered with a sufficient quantity of trometamol.
Without use of trometamol and on use of trometamol in a concentration of only 0.001 M, the pH falls greatly even with slight dilution (1+5). There is a high risk in this case that the active ingredient will precipitate on dilution with other infusion solutions (Table 2 a-c).

[2] = Saturation solubility of compound 1 in various buffer media; conditions: aqueous buffer, thermodynamic from solid
From the text: (§1) However, there are limits to increasing the pH due to the use as infusion. Values of pH above pH 9.0 are borderline in relation to physiological tolerability.

[3] = pKa of the ionizable groups of compound 1
From the text: as §1

[4] = Dilution of 0.05 mg/ml compound 1 / 0.01 M trometamol solutions with standard infusion solutions (Table 3); conditions: trometamol 0.01 M
Experimental: Solutions comprising compound 1 in a concentration of 0.05 mg/ml and trometamol in a concentration of 0.01 M can be diluted problem-free with standard infusion solutions over a wide range. The dilution experiments shown in Table 3 were carried out concerning this:
All the dilution experiments were carried out in duplicate. […] It emerged that there is a marked decrease in the pH values to the region below 8.0 only with dilutions greater than 1:40. Precipitation of the active ingredient is no longer a worry with such great dilutions, because the solubility limit of compound 1 is no longer reached owing to the large amount of dilution medium.

[5] = Titration experiments with 0.01 N hydrochloric acid (acid burden, precipitation)
Experimental: It was possible to show in titration experiments that an acid burden of 0.01 N hydrochloric acid in solutions without trometamol leads to such a large fall in pH even on addition of less than 1 ml to the total content of a 50 ml infusion bottle that the active ingredient precipitates. On addition of 0.001 M trometamol buffer, precipitations are to be observed on addition of about 5 ml of 0.01 N hydrochloric acid. A solution with a trometamol content of 0.01 M is by contrast stable to precipitations on addition of acid up to more than 35 ml of 0.01 N hydrochloric acid.

pH after dilution ([1]; 0.05 mg/ml solution with trometamol 0.001 molar, mixing ratio 1 + 5, NaCl soln, final volume 251 ml, pH before dilution 8.69): 8.43
pH after dilution ([1]; 0.05 mg/ml solution with trometamol 0.001 molar, mixing ratio 1 + 10, NaCl soln, final volume 275 ml, pH before dilution 8.69): 8.05
pH after dilution ([1]; 0.05 mg/ml solution with trometamol 0.001 molar, mixing ratio 1 + 250, NaCl soln, final volume 300 ml, pH before dilution 8.69): 6.61
Appearance of the solution ([1]; mixing ratio 1 + 5, NaCl soln, final volume 251 ml): clear
Appearance of the solution ([1]; mixing ratio 1 + 10, NaCl soln, final volume 275 ml): clear
Appearance of the solution ([1]; mixing ratio 1 + 250, NaCl soln, final volume 300 ml): clear
pH after dilution ([1]; 0.05 mg/ml solution without trometamol, mixing ratio 1 + 5, NaCl soln, final volume 251 ml, pH before dilution 8.51): 6.40
pH after dilution ([1]; 0.05 mg/ml solution without trometamol, mixing ratio 1 + 10, NaCl soln, final volume 275 ml, pH before dilution 8.51): 6.58
pH after dilution ([1]; 0.05 mg/ml solution without trometamol, mixing ratio 1 + 250, NaCl soln, final volume 300 ml, pH before dilution 8.51): 6.70
solubility ([2]; Ammonium chloride buffer solution, actual pH 9.5): 75.7 mg/mL (≈ 134000 µM)
solubility ([2]; Citric acid-phosphate buffer, actual pH 7.4): 0.0131 mg/mL (≈ 23.2 µM)
solubility ([2]; Citric acid-phosphate buffer, actual pH 8.0): 0.0642 mg/mL (≈ 113 µM)
solubility ([2]; Diethanolamine buffer solution, actual pH 10.0): 89.8 mg/mL (≈ 159000 µM)
solubility ([2]; HEPES buffer solution, actual pH 7.5): 0.0358 mg/mL (≈ 63.3 µM)
solubility ([2]; Phosphate buffer solution (0.2 M), actual pH 7.5): 0.0158 mg/mL (≈ 27.9 µM)
solubility ([2]; Phosphate buffer solution (0.3 M), actual pH 7.5): 0.0013 mg/mL (≈ 2.3 µM)
solubility ([2]; Phosphate buffer solution, actual pH 6.0): 0.0002 mg/mL (≈ 0.354 µM)
solubility ([2]; Phosphate buffer solution, actual pH 7.2): 0.0084 mg/mL (≈ 14.8 µM)
solubility ([2]; Phosphate buffer solution, actual pH 7.4): 0.0215 mg/mL (≈ 38 µM)
solubility ([2]; Phosphate buffer solution, actual pH 8.0): 0.0032 mg/mL (≈ 5.66 µM)
solubility ([2]; Phosphate buffer solution, actual pH 9.0): 0.683 mg/mL (≈ 1210 µM)
solubility ([2]; Saline-phosphate buffer, actual pH 7.4): 0.019 mg/mL (≈ 33.6 µM)
solubility ([2]; Sodium citrate buffer solution, actual pH 7.8): 0.16 mg/mL (≈ 283 µM)
solubility ([2]; Tetrabutylammonium buffer solution, actual pH 7.0): 0.0128 mg/mL (≈ 22.6 µM)
pKa1 [3]: 4.0
pKa2 [3]: 4.7
pKa3 [3]: 8.3
Precipitation on dilution ([4]; all dilutions of Table 3, in duplicate): No precipitations occurred
pH after dilution ([4]; mixing ratio 1:2, NaCl soln, final volume 10 ml): 8.67
pH after dilution ([4]; mixing ratio 1:4, NaCl soln, final volume 20 ml): 8.65
pH after dilution ([4]; mixing ratio 1:10, Glucose soln, final volume 50 ml): 8.37
pH after dilution ([4]; mixing ratio 1:10, NaCl soln, final volume 50 ml): 8.57
pH after dilution ([4]; mixing ratio 1:10, Placebo soln, final volume 50 ml): 8.72
pH after dilution ([4]; mixing ratio 1:10, Water, final volume 50 ml): 8.61
pH after dilution ([4]; mixing ratio 1:20, NaCl soln, final volume 100 ml): 8.54
pH after dilution ([4]; mixing ratio 1:40, NaCl soln, final volume 200 ml): 8.40
pH after dilution ([4]; mixing ratio 1:200, NaCl soln, final volume 1000 ml): 7.85
Volume of 0.01 N hydrochloric acid at which precipitations are observed ([5]; solution with 0.001 M trometamol buffer, 50 ml infusion bottle): about 5 ml
Volume of 0.01 N hydrochloric acid up to which the solution is stable to precipitations ([5]; solution with trometamol content of 0.01 M, 50 ml infusion bottle): more than 35 ml
Volume of 0.01 N hydrochloric acid at which the active ingredient precipitates ([5]; solution without trometamol, added to total content of a 50 ml infusion bottle): less than 1 ml
SMILES: O=C(O)CCCCN(CCc1ccccc1OCc1ccc(CCc2ccccc2)cc1)Cc1ccc(C(=O)O)cc1 [compound 1, 4-[((4-Carboxybutyl)-{2-[(4-phenethylbenzyl)oxy]phenethyl}amino)methyl]benzoic acid]
